Where two headings read alike, the source gives them in different places.

The term IC50 denotes the midpoint of a concentration-inhibition curve.

Format in all cases: cell-based
Assay [1] deals with L. braziliensis promastigote forms. The assay can be described thus: In vitro activity against promastigote forms. The conditions noted are these: for Selectivity Index Promastigote Forms: J774.2 Macrophage IC50/Parasite IC50; for IC50: 48 h, 27 °C, means of three separate experiments, read-out: Compound IC50 Promastigote Forms. The method, then:
(§1) Three Leishmania species were studied, each one as a pathogenic agent for each clinical form: L. donovani for VL, L. infantum for CL, and L. braziliensis for ML.
(§2) In order to perform this experiment, promastigotes were harvested in 24-well microplates and different drug concentrations were added in order to reach 12.5, 25, 50, and 100 µM and maintained at 27 °C for 48 h. They were counted after that time was elapsed in a Neubauer haemocytrometric chamber.

Assay [2] relates to L. donovani promastigote forms. Briefly: In vitro activity against promastigote forms. The settings on record: for Selectivity Index Promastigote Forms: J774.2 Macrophage IC50/Parasite IC50; for IC50: 48 h, 27 °C, means of three separated experiments, read-out: Compound IC50 Promastigote Forms. How it is done: as §1, §2
The test system of assay [3] is L. infantum promastigote forms. The assay can be described thus: In vitro activity against promastigote forms. The conditions noted are these: for Selectivity Index Promastigote Forms: J774.2 Macrophage IC50/Parasite IC50; for IC50: 48 h, 27 °C, means of three separate experiments, read-out: Compound IC50 Promastigote Forms. The method, then:
as §1, §2

For assay [4], the system named is J774.2 macrophage cell line. The assay can be described thus: Macrophage cytotoxicity. The settings on record: J774.2 macrophages, means of three separate experiments, read-out: Macrophage Toxicity IC50. An excerpt: Macrophages are cells naturally infected by Leishmania parasites. For that reason, they were used as host cell models, specifically the J774.2 macrophage cell line [European Collection of Authenticated Cell Cultures (ECACC) number 91051511]. Cells were used to test the cytotoxicity of the new compound (establishing IC50 via testing different drug concentrations on cells) and they were used for parasite infectivity assays.

Assay [5] relates to L. donovani amastigote forms. Briefly: In vitro activity against amastigote forms in J774.2 macrophages. The conditions noted are these: for Selectivity Index Amastigote Forms: J774.2 Macrophage IC50/Parasite IC50; for IC50: in J774.2 macrophages, means of three separated experiments, read-out: Compound IC50 Amastigote Forms. How it is done:
(§3) A similar method was used for the amastigote assay. First, J774.2 macrophages were harvested in 24-well microplates with round coverslips at the bottom, where cells will attach. Once cells are fixated, they are infected with promastigotes (10 per each macrophage cell) and compounds were added to reach the same final concentrations as in the previous experiment. After one day, promastigotes transform into amastigotes and microplates are maintained for two days at 37 °C. Once that time is elapsed, coverslips are collected and fixated to a microscope slide and dyed with Giemsa. Amastigotes are then counted using a microscope from a total of 200 random macrophages.

Another assay concerns L. donovani. Briefly: Metabolite excretion (1H-NMR of supernatants). The settings on record: IC25, 72 h, vs untreated. An excerpt: (§4) Active compounds can trigger metabolic alterations within parasite mitochondria. Those alterations can be proven by observing alterations in the excreted metabolites quantity. Trypanosomatids excrete different metabolites to the medium in order to get rid of the carbonate skeleton instead of oxidizing glucose to CO2 and water as vertebrates do. Each metabolite is produced in a certain area of the mitochondrion and by a certain enzyme, thus, it can be inferred that these particular zones or enzymes are being affected by drug action. For this experiment, cultures of each species with an initial concentration of 5 × 10^5 cells/mL were stored at 27 °C for 72 h with IC25 as the test dosage. After this time elapsed, cultures were centrifuged at 400× g for 10 min and supernatants were collected and examined by ^1H-NMR.

Assay [6] deals with L. braziliensis amastigote forms. The assay can be described thus: In vitro activity against amastigote forms in J774.2 macrophages. The settings on record: for Selectivity Index Amastigote Forms: J774.2 Macrophage IC50/Parasite IC50; for IC50: in J774.2 macrophages, means of three separate experiments, read-out: Compound IC50 Amastigote Forms. The method, then: as §3
Assay [7] has as its system L. infantum amastigote forms. The assay is described as above. The conditions noted are these: for Selectivity Index Amastigote Forms: J774.2 Macrophage IC50/Parasite IC50; for IC50: in J774.2 macrophages, means of three separate experiments, read-out: Compound IC50 Amastigote Forms. How it is done: as §3
Assay [8] deals with L. braziliensis. The assay can be described thus: Infectivity assay in J774.2 macrophages. The conditions noted are these: test dosage IC25, 10 days. An excerpt: Following a similar method as the described one in the amastigote experiment, macrophages were harvested and infected with promastigotes in their stationary phase. The test dosage was IC25 for this experiment. The coverslips were collected every 2 days for 10 days and counted in order to determine if drugs affected promastigote infection and amastigote division within the cells by measuring the infection rate (percentage of infected cells) and amastigote number per infected cell.

Assay [9] deals with L. braziliensis. The assay can be described thus: Metabolite excretion (1H-NMR of supernatants). The conditions noted are these: IC25, 72 h, vs untreated.
Source text: as §4

For another assay, the system named is L. infantum. Briefly: Metabolite excretion (1H-NMR of supernatants). The conditions noted are these: IC25, 72 h, vs untreated.
Source text: as §4

For the compound `c1cc2cc(c1)CNCCCNCCNCCNCCCNC2` [mB3223], the “Selectivity Index Promastigote Forms” value in [1] was determined as 93; in assay [2], 11; in [3], 23. Further, the IC50 was 15.6 ± 0.7 µM in [1] (Leishmania braziliensis), 126 ± 3.8 µM in [2] (Leishmania donovani), 63.4 ± 2.4 µM in assay [3] (Leishmania infantum) and 1450 ± 89.7 µM in assay [4] (Mus musculus).
On to `c1cc2ccc1CNCCNCCCNCCNC2` [pB232], for which the “Selectivity Index Promastigote Forms” value in [1] was 26; in [2], 1; in assay [3], 2. The IC50 in [1] (Leishmania braziliensis) worked out at 27.2 ± 0.9 µM; in assay [2] (Leishmania donovani), 743 ± 23.6 µM; in [3] (Leishmania infantum), 367 ± 10.5 µM; in assay [4] (Mus musculus), 719 ± 20.5 µM.
Consider `c1cc2nc(c1)CNCCCNCCCNCCNCCCNCCCNC2` [Py33233], for which the figures for the “Selectivity Index Promastigote Forms” value in assay [1], in [2] and in assay [3] were 3, 2 and 3, respectively. Besides, the IC50 was determined as 507 ± 8.3 µM in assay [1] (Leishmania braziliensis), 583 ± 6.9 µM in assay [2] (Leishmania donovani), 484 ± 10.7 µM in assay [3] (Leishmania infantum) and 1290 ± 77.5 µM in assay [4] (Mus musculus).
Consider `c1c2n[nH]c1CNCCCNCCCNCCCNC2` [PZ333], for which the “Selectivity Index Promastigote Forms” value in assay [1] came out at 63; in assay [2] it was 704; in [3] it was 14. Besides, the IC50 in assay [1] (Leishmania braziliensis) was 15.7 ± 0.5 µM; in assay [2] (Leishmania donovani), 1.4 ± 0.3 µM; in assay [3] (Leishmania infantum), 70 ± 0.7 µM; in assay [5] (Leishmania donovani) it was 1.7 ± 0.5 µM; in assay [4] (Mus musculus), 985 ± 72.8 µM. Moreover, in assay [5], the “Selectivity Index Amastigote Forms” value is on record as 579. Also, the “Acetate production and excretion variation” value with L. donovani was found to be 33.66%. For the same compound, the “D-lactate production and excretion variation” value in the assay on L. donovani is on record as 29.85%. The “L-alanine production and excretion variation” value in the assay on L. donovani is reported as 32.65%. Further, the “Pyruvate production and excretion variation” value in the assay on L. donovani is listed as 37.88%. Besides, the “Succinate production and excretion variation” value in the assay with L. donovani is listed as 42.10%.
Turning to `c1cc2nc(c1)CNCCCNCCNCCCNCCNCCCNC2` [Py32323], the IC50 worked out at 1630 ± 76.4 µM in assay [1] (Leishmania braziliensis), 130 ± 9.5 µM in [2] (Leishmania donovani), 90.6 ± 3.8 µM in assay [3] (Leishmania infantum) and 85.4 ± 4.6 µM in assay [4] (Mus musculus). For the same compound, the “Selectivity Index Promastigote Forms” value in [2] and in [3] was 1 in each case.
As to Glucantime [reference compound], the IC50 in assay [1] was 51.4 ± 2.5 µM; in assay [2] it was 23.7 ± 0.8 µM; in assay [3], 50.1 ± 2.3 µM; in assay [6] it was 103 µM; in assay [5] it was 76.4 ± 4.1 µM; in assay [7], 84.6 ± 4.3 µM. In [4], the IC50 was determined as 176 ± 10.6 µM. Also, the results for the “Selectivity Index Promastigote Forms” value in assay [1], in [2] and in [3] were 3, 7 and 3.5, respectively. The “Selectivity Index Amastigote Forms” value was 1.7 in assay [6], 2 in [5] and 2 in assay [7].
Turning to `c1cc2cc(c1)CNCCNCCCNCCNC2` [mB232], the “Selectivity Index Promastigote Forms” value was 7 in [1], 4 in [2] and 3 in [3]. The IC50 in [1] (Leishmania braziliensis) was found to be 91.7 ± 3.7 µM; in assay [2] (Leishmania donovani), 171 ± 10.4 µM; in [3] (Leishmania infantum), 205 ± 30.7 µM; in assay [4] (Mus musculus) it was 667 ± 88.5 µM.
Regarding `c1cc2nc(c1)CNCCCNCCNCCNCCCNC2` [Py3223], the “Selectivity Index Promastigote Forms” value is on record as 1 in [1], 3 in assay [2] and 1 in assay [3]. The IC50 worked out at 291 ± 3.8 µM in [1] (Leishmania braziliensis), 52.5 ± 2.1 µM in [2] (Leishmania donovani), 192 ± 5.8 µM in assay [3] (Leishmania infantum) and 165 ± 4.9 µM in assay [4] (Mus musculus).
Take `c1cc2nc(c1)CNCCCNCCCNCCCNC2` [Py333]: the “Selectivity Index Promastigote Forms” value in [1] came to 12; in [2] it was 1549; in assay [3], 10. Further, the IC50 in [1] (Leishmania braziliensis) is 26.2 ± 1.1 µM; in assay [2] (Leishmania donovani) it was 0.2 µM; in assay [3] (Leishmania infantum), 30.4 ± 1.4 µM; in assay [5] (Leishmania donovani), 16.8 ± 0.5 µM; in assay [4] (Mus musculus), 310 ± 43.8 µM. The “Selectivity Index Amastigote Forms” value in [5] came out at 18.
As for `c1c2n[nH]c1CNCCNCCCNCCNC2` [PZ232], the figures for the “Selectivity Index Promastigote Forms” value in [1], in assay [2] and in assay [3] were 116, 27 and 52, respectively. Moreover, the IC50 in assay [1] (Leishmania braziliensis) turned out to be 5.8 ± 0.2 µM; in assay [2] (Leishmania donovani), 25 ± 0.8 µM; in assay [3] (Leishmania infantum) it was 13 ± 0.4 µM; in assay [6] (Leishmania braziliensis), 1.6 ± 0.6 µM; in [7] (Leishmania infantum) it was 4.9 ± 0.4 µM; in assay [4] (Mus musculus), 674 ± 66.3 µM. In addition, the “Selectivity Index Amastigote Forms” value is given as 421 in assay [6] and 138 in assay [7]. For the same compound, the “Amastigote number/infected cell, percentage in plot key (reduction vs control)” value in the assay on L. braziliensis [8] was determined as 32.4%. The “Acetate production and excretion variation” value in the assay with L. braziliensis [9] is on record as -38.64%; with L. infantum, -11.80%. Further, the “D-lactate production and excretion variation” value with L. braziliensis [9] is -38.98%; with L. infantum, -11.58%. For the same compound, the “L-alanine production and excretion variation” value in the assay with L. braziliensis [9] was -37.91%; with L. infantum, -13.15%. The figures for the “Pyruvate production and excretion variation” value with L. braziliensis [9] and in the assay on L. infantum were -35.69% and -14.03%, respectively. Moreover, the “Succinate production and excretion variation” value with L. braziliensis [9] is given as -37.83%; in the assay with L. infantum, -16.36%.
Turning to `c1cc2cc(c1)CNCCCNCCNCCCNC2` [mB323, 3,7,10,14 Tetraaza-1(2,6)-benzenacyclopentadecaphane], the “Selectivity Index Promastigote Forms” value is 186 in assay [1], 3 in [2] and 4 in assay [3]. Further, the IC50 amounted to 2.3 ± 0.5 µM in assay [1] (Leishmania braziliensis); 158 ± 7.3 µM in [2] (Leishmania donovani); 95.6 ± 4.8 µM in assay [3] (Leishmania infantum); 17.1 ± 1.1 µM in assay [6] (Leishmania braziliensis); 428 ± 22.6 µM in [4] (Mus musculus). For the same compound, the “Selectivity Index Amastigote Forms” value in [6] stood at 25.
`c1cc2nc(c1)CNCCCNCCNCCNCCNCCCNC2` [Py32223]: the IC50 in [1] (Leishmania braziliensis) was determined as 442 ± 5.8 µM; in assay [2] (Leishmania donovani) it was 1000 ± 78.4 µM; in assay [3] (Leishmania infantum), 93.4 ± 3.7 µM; in assay [4] (Mus musculus) it was 57.7 ± 1.9 µM. The “Selectivity Index Promastigote Forms” value in assay [3] is listed as 1.
For the compound `c1cc2nc(c1)CNCCCNCCCCNC2` [Py34], the figures for the “Selectivity Index Promastigote Forms” value in [1], in assay [2] and in assay [3] were 19, 20 and 10, respectively. Further, the IC50 was found to be 29.2 ± 0.8 µM in assay [1] (Leishmania braziliensis), 28.4 ± 0.6 µM in assay [2] (Leishmania donovani), 56.7 ± 2.6 µM in assay [3] (Leishmania infantum) and 569 ± 45.8 µM in assay [4] (Mus musculus).
As to `c1cc2cc(c1)CNCCCNCCCNCCCNC2` [mB333, 3,7,11,15 Tetraaza-1(2,6)-benzenacyclohexadecaphane], the entries for the “Selectivity Index Promastigote Forms” value in assay [1], in assay [2] and in assay [3] were 4, 9 and 11, respectively. The IC50 in assay [1] (Leishmania braziliensis) is 210 ± 5.3 µM; in assay [2] (Leishmania donovani), 106 ± 7.5 µM; in assay [3] (Leishmania infantum), 86.1 ± 3.7 µM; in assay [4] (Mus musculus), 916 ± 51.6 µM.
